Entries after “also recorded” stand apart in the source; their conditions may differ. Square brackets hold non-standard residues; d marks the D form. Peptide text beside a SMILES is read from it. * marks the point of attachment. Biotin = O=C1N[C@H]2[C@H](CS[C@H]2CCCCC(=O)*)N1; Ahx = NCCCCCC(=O)O
Experiments:
EphB4 = molecular target: T1, EphB4 (Mus musculus, UniProt P54761); assay: Ephrin-B2-induced EphB4 tyrosine phosphorylation in B16 melanoma cells (immunoprecipitation/immunoblot); format: cell-based; conditions: 24 hours pretreatment, Figure 4A
T1 construct: tyrosine phosphorylation of endogenous EphB4 expressed in B16 melanoma cells; host or cells: B16-F10-luc-G5 melanoma cells
T1 sequence (P54761 16-987): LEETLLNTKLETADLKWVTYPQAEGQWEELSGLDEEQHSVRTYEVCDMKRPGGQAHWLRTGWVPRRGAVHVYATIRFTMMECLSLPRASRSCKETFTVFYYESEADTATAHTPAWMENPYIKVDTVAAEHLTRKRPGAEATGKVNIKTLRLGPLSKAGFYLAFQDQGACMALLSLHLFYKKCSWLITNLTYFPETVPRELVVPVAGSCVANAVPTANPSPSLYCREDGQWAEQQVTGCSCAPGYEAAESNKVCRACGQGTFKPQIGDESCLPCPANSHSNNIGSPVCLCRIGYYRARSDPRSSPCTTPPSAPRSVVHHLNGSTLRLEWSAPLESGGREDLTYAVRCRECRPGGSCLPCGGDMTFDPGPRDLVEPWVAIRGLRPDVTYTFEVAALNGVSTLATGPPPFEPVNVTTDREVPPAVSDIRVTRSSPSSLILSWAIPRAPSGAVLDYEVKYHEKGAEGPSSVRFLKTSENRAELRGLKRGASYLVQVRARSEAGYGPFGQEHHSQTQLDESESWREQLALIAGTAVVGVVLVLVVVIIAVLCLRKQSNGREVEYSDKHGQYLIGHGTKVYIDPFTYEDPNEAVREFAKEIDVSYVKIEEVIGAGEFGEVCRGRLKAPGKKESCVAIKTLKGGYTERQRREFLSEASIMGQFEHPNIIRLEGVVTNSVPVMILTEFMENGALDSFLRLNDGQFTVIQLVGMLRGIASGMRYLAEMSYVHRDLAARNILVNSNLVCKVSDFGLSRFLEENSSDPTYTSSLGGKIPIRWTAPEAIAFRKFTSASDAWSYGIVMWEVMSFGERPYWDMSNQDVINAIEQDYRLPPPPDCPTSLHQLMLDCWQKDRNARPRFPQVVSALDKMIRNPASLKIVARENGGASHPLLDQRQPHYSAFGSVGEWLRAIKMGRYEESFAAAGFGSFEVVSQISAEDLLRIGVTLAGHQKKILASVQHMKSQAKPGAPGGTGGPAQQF
Experimental: B16-F10-luc-G5 melanoma cells, which endogenously express EphB4, were serum starved for 1–3 hours in Eagle's MEM/EBSS containing 0.5% FBS and incubated for 15 min or 24 hours with different concentrations of PEG-TNYL-RAW. The cells were then stimulated for 20 min with 1.5 µg/ml ephrin-B2 Fc, which had been preclustered with a 3 fold excess of an anti-Fc antibody, in the continued presence of the peptide. HUVECs, EMCs or a 1∶1 mixture of the two cell types were plated for 20 hours in complete medium in the presence of PEG or PEG-TNYL-RAW. Medium 200 was used for HUVECs and HUVECs and EMCs co-cultures, DMEM was used for EMCs. The cells were lysed in modified RIPA buffer (1% Triton X-100, 1% Na deoxycholate; 0.1% SDS; 20 mM Tris; 150 mM NaCl; 1 mM EDTA) containing 10 µM NaF, 1 µM sodium pervanadate and protease inhibitors. Protein concentrations were measured using the BCA protein assay kit (Pierce Biotechnology, Rockford, IL). For immunoprecipitations, cell lysates were incubated with 20 µg of an anti-EphB4 antibody made to a GST fusion protein of the EphB4 SAM domain and carboxy-terminal tail immobilized on GammaBind Sepharose beads (GE Healthcare Life Sciences). […]

[1] = Peptide stability in cell culture medium / conditioned medium (ELISA of functional peptide); format: in vitro ADME
Experimental: PC3 prostate cancer cells were grown in RPMI 1640 medium (Mediatech, Inc, Herndon, VA) with 10% fetal bovine serum (FBS) (Hyclone, Logan, UT), penicillin and streptomycin. B16-F10-luc-G5 melanoma cells (Caliper Life Sciences, Hopkinton, MA) were grown in Eagle's MEM with Earle's Balanced Salts (EBSS) (Hyclone, Logan, UT) supplemented with 10% FBS, non essential amino acids (Hyclone, Logan, UT), L-glutamine, sodium pyruvate (Hyclone, Logan, UT), MEM vitamin solution (Life Technologies-Invitrogen), penicillin and streptomycin (Omega Scientific, Tarzana, CA). HUVECs (Cascade Biologics, Portland, OG) were grown in Medium 200 supplemented with low serum growth supplements (Cascade Biologics), 10% FBS, penicillin and streptomycin, and fungizone (Omega Scientific, Tarzana, CA). Rat EMCs were grown in DMEM (Mediatech, Inc, Herndon, VA) supplemented with 10% FBS, penicillin and streptomycin. The different modified forms of TNYL-RAW at a concentration of 25 nM were added to fresh medium or culture medium conditioned by the cells for 1–4 days. The culture medium was collected after different time periods and diluted 1∶10 in ELISA wells. The amount of intact TNYL-RAW peptide remaining was measured by using the ELISA assays described above for measurement of binding affinity. In some experiments, the peptide was incubated at 37°C with PC3 cell conditioned medium collected from the cells in the absence or in the presence of protease inhibitors (10 µg/ml aprotinin, 5 µg/ml pepstatin, 10 µg/ml leupeptin and 0.75 mM or phenylmethylsulfonylfluoride (PMSF)).

HUVECs and EMCs = assay: Capillary-like tube formation on Matrigel; format: cell-based; conditions: HUVECs and EMCs 2:1, Matrigel, 15 hours; TNYL-RAW tested up to 20 µM; Figure 6
Experimental: An EMC clone expressing EGFP was generated by transducing EMCs (a kind gift from H. Eid) with a lentiviral construct followed by clonal selection. To generate capillary-like tubes, HUVECs (2.8×10^4), EMCs (7.5×10^4) or a mixture of the two cell types (2.8×10^4 HUVECs and 1.4×10^4 EMCs) were grown for 5 to 20 hours in 24-well tissue culture plates (Corning, Corning, NY) precoated with 80 µl Matrigel (BD Bioscience, San Jose, CA) in Medium 200 or DMEM complete culture medium containing PEG-TNYL-RAW or PEG control. In some experiments, mixed cultures were treated with TNYL-RAW or DMSO control. The cells were then fixed for 15 min in 4% formaldehyde in PBS and photographed under a fluorescence microscope. Tube length was quantified using ImageJ software.

[2] = Peptide stability in mouse serum ex vivo; format: in vitro ADME; conditions: 37°C

- Inhibitory activity on EphB4 phosphorylation after 24 hours of incubation with cells (EphB4): ineffective
- Peptide loss in culture medium of other cell types ([1]; B16 melanoma cells, HUVECs, EMCs (Figure S1), C6 glioma cells and BPH1 prostate epithelial cells (data not shown), biotinylated TNYL-RAW, ELISA): Rapid TNYL-RAW loss
- Half-life in PC3 cell culture medium ([1]; biotinylated TNYL-RAW with PC3 prostate cancer cells grown in the same medium for several days, depends on cell density and time in medium, ELISA capture on EphB4 Fc, streptavidin-HRP, Figure 1A): less than an hour to several hours
- Half-life with cells in fresh culture medium versus medium used for 3 days ([1]; biotinylated TNYL-RAW, PC3 cells, medium freshly replaced before adding peptide, ELISA, Figure 1A): had a longer half-life
- Stability in mouse serum ex vivo ([2]; undiluted mouse serum, functional peptide by ELISA, Figures 1E, 3B): rapidly lost
SMILES: CC[C@H](C)[C@H](NC(=O)[C@@H]1CCCN1C(=O)CNC(=O)[C@H](CC(N)=O)NC(=O)[C@@H]1CCCN1C(=O)[C@H](CO)NC(=O)[C@H](Cc1ccccc1)NC(=O)[C@H](CC(C)C)NC(=O)[C@H](Cc1ccc(O)cc1)NC(=O)[C@H](CC(N)=O)NC(=O)[C@@H](N)[C@@H](C)O)C(=O)N[C@@H](C)C(=O)N[C@@H](CCCNC(=N)N)C(=O)N[C@@H](C)C(=O)N[C@@H](Cc1c[nH]c2ccccc12)C(=O)NCCCCCC(=O)N[C@@H](CCCCNC(=O)CCCC[C@@H]1SC[C@@H]2NC(=O)N[C@@H]21)C(N)=O [TNYL-RAW] (H-TNYLFSPNGPIARAW[Ahx]K(Biotin)-NH2; N-terminus and C-terminus assumed)
- Peptide loss in PC3 cell conditioned medium with protease inhibitors ([1]; conditioned medium without cells, 37°C, aprotinin, leupeptin, pepstatin and PMSF, ELISA, Figure 1B): blocked by a mixture of protease inhibitors
- Effect on capillary-like tube formation in co-cultures at different concentrations (HUVECs and EMCs): does not have significant effects; also recorded: does not have a significant effect
- Loss in mouse serum ex vivo with protease inhibitors ([2]; mouse serum, mixture of protease inhibitors, ELISA, Fig. 1E): partially counteracted by a mixture of protease inhibitors
